Assay results from ChEMBL document CHEMBL1149774, “Synthesis of N-(5,7-diamino-3-phenyl-quinoxalin-2-yl)-3,4,5-substituted anilines and N-[4[(5,7-diamino-3-phenylquinoxalin-2-yl)amino]benzoyl]-l-glutamic acid diethyl ester: evaluation of in vitro anti-cancer and anti-folate activities” (Eur J Med Chem, 2008).

Experiments:
Format in all cases: functional
[1] = system: NCI-H23; assay: Growth inhibition of human NCI-H23 cells after 48 hrs by SRB staining method; conditions: NCI-H23, 48 h
[2] = system: NCI-H460; assay: Growth inhibition of human NCI-H460 cells after 48 hrs by SRB staining method; conditions: NCI-H460, 48 h
[3] = system: HCT-116; assay: Growth inhibition of human HCT116 cells after 48 hrs by SRB staining method; conditions: HCT-116, 48 h
[4] = system: KM12; assay: Growth inhibition of human KM12 cells after 48 hrs by SRB staining method; conditions: KM12, 48 h
[5] = system: SF-295; assay: Growth inhibition of human SF295 cells after 48 hrs by SRB staining method; conditions: SF-295, 48 h
[6] = system: SNB-19; assay: Growth inhibition of human SNB19 cells after 48 hrs by SRB staining method; conditions: SNB-19, 48 h
[7] = system: U-251; assay: Growth inhibition of human U251 cells after 48 hrs by SRB staining method; conditions: U-251, 48 h
[8] = system: M14; assay: Growth inhibition of human M14 cells after 48 hrs by SRB staining method; conditions: M14, 48 h
[9] = system: SK-MEL-28; assay: Growth inhibition of human SK-MEL-28 cells after 48 hrs by SRB staining method; conditions: SK-MEL-28, 48 h
[10] = system: SK-MEL-5; assay: Growth inhibition of human SK-MEL-5 cells after 48 hrs by SRB staining method; conditions: SK-MEL-5, 48 h
[11] = system: UACC-257; assay: Growth inhibition of human UACC257 cells after 48 hrs by SRB staining method; conditions: UACC-257, 48 h
[12] = system: UACC-62; assay: Growth inhibition of human UACC62 cells after 48 hrs by SRB staining method; conditions: UACC-62, 48 h
[13] = system: IGROV-1; assay: Growth inhibition of human IGROV1 cells after 48 hrs by SRB staining method; conditions: IGROV-1, 48 h
[14] = system: OVCAR-8; assay: Growth inhibition of human OVCAR8 cells after 48 hrs by SRB staining method; conditions: OVCAR-8, 48 h
[15] = system: SK-OV-3; assay: Growth inhibition of human SKOV3 cells after 48 hrs by SRB staining method; conditions: SK-OV-3, 48 h
[16] = system: 786-0; assay: Growth inhibition of human 786-0 cells after 48 hrs by SRB staining method; conditions: 786-0, 48 h
[17] = system: A498; assay: Growth inhibition of human A498 cells after 48 hrs by SRB staining method; conditions: A498, 48 h
[18] = system: ACHN; assay: Growth inhibition of human ACHN cells after 48 hrs by SRB staining method
[19] = system: CAKI-1; assay: Growth inhibition of human CAKI1 cells after 48 hrs by SRB staining method; conditions: CAKI-1, 48 h
[20] = system: RXF 393; assay: Growth inhibition of human RXF393 cells after 48 hrs by SRB staining method; conditions: RXF 393, 48 h
[21] = system: TK-10; assay: Growth inhibition of human TK10 cells after 48 hrs by SRB staining method; conditions: TK-10, 48 h
[22] = system: PC-3; assay: Growth inhibition of human PC3 cells after 48 hrs by SRB staining method; conditions: PC-3, 48 h
[23] = system: DU-145; assay: Growth inhibition of human DU145 cells after 48 hrs by SRB staining method; conditions: DU-145, 48 h
[24] = system: MCF7; assay: Growth inhibition of human MCF7 cells after 48 hrs by SRB staining method; conditions: MCF7, 48 h
[25] = system: NCI/ADR-RES; assay: Growth inhibition of human NCI/ADR-RES cells after 48 hrs by SRB staining method
[26] = system: MDA-MB-231; assay: Growth inhibition of human MDA-MB-231 cells after 48 hrs by SRB staining method; conditions: MDA-MB-231, 48 h
[27] = system: MDA-MB-435; assay: Growth inhibition of human MDA-MB-435 cells after 48 hrs by SRB staining method; conditions: MDA-MB-435, 48 h
[28] = system: T47D; assay: Growth inhibition of human T47D cells after 48 hrs by SRB staining method
[29] = system: A549; assay: Growth inhibition of human A549 cells after 48 hrs by SRB staining method; conditions: A549, 48 h
[30] = system: SF-268; assay: Growth inhibition of human SF268 cells after 48 hrs by SRB staining method; conditions: SF-268, 48 h
[31] = system: K562; assay: Growth inhibition of human K562 cells after 48 hrs by SRB staining method; conditions: K562, 48 h
[32] = system: SR; assay: Growth inhibition of human SR cells after 48 hrs by SRB staining method
[33] = system: EKVX; assay: Growth inhibition of human EKVX cells after 48 hrs by SRB staining method
[34] = read-out: pLC50 (the source's name) (converted)

COc1cc(Nc2nc3cc(N)cc(N)c3nc2-c2ccccc2)cc(OC)c1
GI50 [1]: 27.5 µM
LC50 [1]: > 100 µM
TGI ([1]; read-out: pTGI (converted)): > 100 µM
GI50 [2]: 7.94 µM
LC50 (concentration killing 50% of cells) [2]: > 100 µM
TGI ([2]; read-out: pTGI (converted)): 52.5 µM
GI50 [3]: 17 µM
LC50 [3]: > 100 µM
TGI ([3]; read-out: pTGI (converted)): 53.7 µM
GI50 [4]: 13.2 µM
LC50 [4]: 72.4 µM
TGI ([4]; read-out: pTGI (converted)): 30.9 µM
GI50 [5]: 12.6 µM
LC50 [5]: > 100 µM
TGI ([5]; read-out: pTGI (converted)): 58.9 µM
GI50 [6]: 57.5 µM
LC50 [6]: > 100 µM
TGI ([6]; read-out: pTGI (converted)): > 100 µM
GI50 [7]: 22.9 µM
LC50 (50% lethal concentration) [7]: > 100 µM
TGI ([7]; read-out: pTGI (converted)): > 100 µM
GI50 [8]: 14.1 µM
LC50 [8]: 85.1 µM
TGI ([8]; read-out: pTGI (converted)): 34.7 µM
GI50 [9]: 14.8 µM
CC50 [9, 34]: > 100 µM
TGI ([9]; read-out: pTGI (converted)): 89.1 µM
GI50 [10]: 10.5 µM
LC50 [10]: 87.1 µM
TGI ([10]; read-out: pTGI (converted)): 30.2 µM
GI50 [11]: 15.8 µM
LC50 [11]: > 100 µM
TGI ([11]; read-out: pTGI (converted)): 47.9 µM
GI50 [12]: 7.41 µM
LC50 [12]: 61.7 µM
TGI ([12]; read-out: pTGI (converted)): 23.4 µM
GI50 [13]: 2690 nM
LC50 [13]: > 100 µM
TGI ([13]; read-out: pTGI (converted)): 17 µM
GI50 [14]: 6.17 µM
CC50 [14, 34]: > 100 µM
TGI ([14]; read-out: pTGI (converted)): 46.8 µM
GI50 [15]: 6.61 µM
CC50 [15, 34]: > 100 µM
TGI ([15]; read-out: pTGI (converted)): 39.8 µM
GI50 [16]: 17.8 µM
CC50 [16, 34]: > 100 µM
TGI ([16]; read-out: pTGI (converted)): 51.3 µM
GI50 [17]: 4.9 µM
CC50 [17, 34]: 79.4 µM
TGI ([17]; read-out: pTGI (converted)): 22.4 µM
GI50 [18]: 5.62 µM
CC50 [18, 34]: > 100 µM
TGI ([18]; read-out: pTGI (converted)): 83.2 µM
GI50 [19]: 14.8 µM
CC50 [19, 34]: > 100 µM
TGI ([19]; read-out: pTGI (converted)): 72.4 µM
GI50 [20]: 3.16 µM
CC50 [20, 34]: 95.5 µM
TGI ([20]; read-out: pTGI (converted)): 18.6 µM
GI50 [21]: 13.2 µM
CC50 [21, 34]: > 100 µM
TGI ([21]; read-out: pTGI (converted)): 42.7 µM
GI50 [22]: 1950 nM
CC50 [22, 34]: 57.5 µM
TGI ([22]; read-out: pTGI (converted)): 11 µM
GI50 [23]: 22.9 µM
CC50 [23, 34]: > 100 µM
TGI ([23]; read-out: pTGI (converted)): > 100 µM
GI50 [24]: 7.94 µM
CC50 [24, 34]: 85.1 µM
TGI ([24]; read-out: pTGI (converted)): 26.9 µM
GI50 [25]: 12.9 µM
CC50 [25, 34]: > 100 µM
TGI ([25]; read-out: pTGI (converted)): 74.1 µM
GI50 [26]: 6.46 µM
CC50 [26, 34]: > 100 µM
TGI ([26]; read-out: pTGI (converted)): 34.7 µM
GI50 [27]: 11.5 µM
CC50 [27, 34]: 49 µM
TGI ([27]; read-out: pTGI (converted)): 24 µM
GI50 [28]: 4.47 µM
CC50 [28, 34]: > 100 µM
TGI ([28]; read-out: pTGI (converted)): 22.9 µM
GI50 [29]: 20 µM
CC50 [29, 34]: > 100 µM
TGI ([29]; read-out: pTGI (converted)): > 100 µM
GI50 [30]: 5.62 µM
CC50 [30, 34]: > 100 µM
TGI ([30]; read-out: pTGI (converted)): 56.2 µM
GI50 [31]: 27.5 µM
CC50 [31, 34]: > 100 µM
TGI ([31]; read-out: pTGI (converted)): > 100 µM
GI50 [32]: 5.62 µM
CC50 [32, 34]: > 100 µM
TGI ([32]; read-out: pTGI (converted)): > 100 µM
GI50 [33]: 13.2 µM
CC50 [33, 34]: > 100 µM
TGI ([33]; read-out: pTGI (converted)): 64.6 µM
